Here are results for four substances from patent US20230181681A1, “PEPTIDE FOR SUPPRESSING CORONAVIRUS AND USE THEREOF” (priority 2020, published 2023).

The test system of assay [1] is HCoV-OC43. The assay is described as follows: HCoV-OC43 S and N protein production in infected Vero cells (Western blotting, confocal microscopy). As to conditions: 0.1 MOI, peptide 6 hours after infection, 48 h, FIGS. 20 to 22. In kind it is cell-based. (In general: Immunoblotting shows a protein as a band on a membrane.)
Another assay has as its system SARS-CoV-2. The assay is classed as cell-based.
The test system of another assay is MERS-CoV. In kind it is cell-based.
The test system of assay [2] is HCoV-OC43. The assay is described as follows: HCoV-OC43 production in Vero cells by plaque formation assay. The assay is classed as cell-based. The note with it: 0.1 MOI, 2 μM peptide 6 hours after infection, 48 hours, plaque formation test, FIG. 23.
The subject of assay [3] is interaction of MERS-CoV Spike CD with MERS-CoV N protein. In kind it is binding.
The subject of a further assay is MERS-CoV N protein. In kind it is binding.

Ends that are not written are not given here.

For “CCTGCGTSCFKKCGGCCDDYTGYQELVIKTSHDD [Spike CD-OC43]”, the “production of S protein and N protein of HCoV-OC43” value with HCoV-OC43 [1] is on record as “no effect was observed”.
Consider “NH2-d-RRRRRRRRRR-AQARRKNYGQLDIFP-COOH [R-CP-1]”, for which, in the assay with SARS-CoV-2, the “reduction of SARS-CoV-2 production” value is given as 40%. Moreover, in the assay with MERS-CoV, the MERS-CoV plaque formation entry is recorded as “no effect was observed”.
Take “R-Spike CD-OC43 (RRRRRRRRRCCTGCGTSCFKKCGGCCDDYTGYQELVIKTSHDD; not fully specified; cysteine pairing not given here)”: in the assay with HCoV-OC43 [2], the “reduction of HCoV-OC43 production” value is reported as 20%.
As for TGCGTNCMGKLKCNRC [Spike CD-F], the “relative activity in inhibiting the interaction between Spike CD-Full and N protein” value in assay [3] is recorded as “highest activity”. The “binding of Spike CD peptides with N protein” value in the assay with MERS-CoV N protein was “can tightly bind with N protein”.
